Reference: US20060110790A1, “Expression system for large functional proteins” (priority 2002, published 2006)

Columns and labels:
Type in all cases: binding
[1] = molecular target: T1, co-expressed N and C halves of ABCR (Homo sapiens, UniProt P78363); experiment: 8-azido-ATP photoaffinity labeling of membranes from transfected cells; settings: 1 mM ATP added prior to photoaffinity labeling; 1.5 μM 8-azido-[α-32P]ATP; C-half labeled; FIG. 5A lane 4
T1 construct: The cDNAs coding for the N-half (amino acids 1-1325) and C-half (amino acids 1326-2273) of ABCR; made in house; host or cells: COS-1 cells, co-transfected
T1 sequence (P78363 1-1325): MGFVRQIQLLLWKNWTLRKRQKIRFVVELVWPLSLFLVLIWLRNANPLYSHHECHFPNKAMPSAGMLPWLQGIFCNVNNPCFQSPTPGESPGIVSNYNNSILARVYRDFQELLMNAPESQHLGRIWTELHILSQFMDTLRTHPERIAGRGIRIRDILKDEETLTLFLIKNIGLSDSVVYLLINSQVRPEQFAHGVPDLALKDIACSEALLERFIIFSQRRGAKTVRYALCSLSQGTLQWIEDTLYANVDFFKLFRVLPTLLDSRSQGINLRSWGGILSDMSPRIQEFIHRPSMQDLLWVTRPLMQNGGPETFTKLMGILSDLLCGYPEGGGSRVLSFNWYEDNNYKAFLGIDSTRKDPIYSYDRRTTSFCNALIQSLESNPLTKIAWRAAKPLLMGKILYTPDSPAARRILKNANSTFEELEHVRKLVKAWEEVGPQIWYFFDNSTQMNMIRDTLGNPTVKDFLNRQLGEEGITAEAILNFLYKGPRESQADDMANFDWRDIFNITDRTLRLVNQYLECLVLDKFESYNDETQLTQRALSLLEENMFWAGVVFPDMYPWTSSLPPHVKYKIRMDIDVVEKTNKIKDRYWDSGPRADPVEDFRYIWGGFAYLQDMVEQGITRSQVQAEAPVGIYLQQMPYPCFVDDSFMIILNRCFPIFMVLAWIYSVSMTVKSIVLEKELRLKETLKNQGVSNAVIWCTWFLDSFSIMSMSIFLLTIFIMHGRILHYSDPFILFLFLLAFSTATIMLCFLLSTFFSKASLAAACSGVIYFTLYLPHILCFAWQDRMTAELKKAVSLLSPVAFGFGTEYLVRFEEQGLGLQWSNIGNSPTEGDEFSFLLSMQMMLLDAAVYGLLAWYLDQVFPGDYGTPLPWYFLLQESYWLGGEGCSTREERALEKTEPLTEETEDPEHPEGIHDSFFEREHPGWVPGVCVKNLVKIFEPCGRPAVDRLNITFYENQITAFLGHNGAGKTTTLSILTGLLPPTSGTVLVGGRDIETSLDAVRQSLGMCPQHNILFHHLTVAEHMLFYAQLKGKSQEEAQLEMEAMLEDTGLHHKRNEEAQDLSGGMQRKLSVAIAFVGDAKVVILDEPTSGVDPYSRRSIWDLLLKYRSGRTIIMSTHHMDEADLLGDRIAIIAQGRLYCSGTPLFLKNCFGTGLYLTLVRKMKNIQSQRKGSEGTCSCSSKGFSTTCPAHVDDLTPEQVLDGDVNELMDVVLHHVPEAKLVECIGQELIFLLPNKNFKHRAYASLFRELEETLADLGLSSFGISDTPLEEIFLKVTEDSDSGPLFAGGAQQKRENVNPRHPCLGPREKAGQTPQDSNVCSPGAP
T1 sequence (P78363 1326-2273): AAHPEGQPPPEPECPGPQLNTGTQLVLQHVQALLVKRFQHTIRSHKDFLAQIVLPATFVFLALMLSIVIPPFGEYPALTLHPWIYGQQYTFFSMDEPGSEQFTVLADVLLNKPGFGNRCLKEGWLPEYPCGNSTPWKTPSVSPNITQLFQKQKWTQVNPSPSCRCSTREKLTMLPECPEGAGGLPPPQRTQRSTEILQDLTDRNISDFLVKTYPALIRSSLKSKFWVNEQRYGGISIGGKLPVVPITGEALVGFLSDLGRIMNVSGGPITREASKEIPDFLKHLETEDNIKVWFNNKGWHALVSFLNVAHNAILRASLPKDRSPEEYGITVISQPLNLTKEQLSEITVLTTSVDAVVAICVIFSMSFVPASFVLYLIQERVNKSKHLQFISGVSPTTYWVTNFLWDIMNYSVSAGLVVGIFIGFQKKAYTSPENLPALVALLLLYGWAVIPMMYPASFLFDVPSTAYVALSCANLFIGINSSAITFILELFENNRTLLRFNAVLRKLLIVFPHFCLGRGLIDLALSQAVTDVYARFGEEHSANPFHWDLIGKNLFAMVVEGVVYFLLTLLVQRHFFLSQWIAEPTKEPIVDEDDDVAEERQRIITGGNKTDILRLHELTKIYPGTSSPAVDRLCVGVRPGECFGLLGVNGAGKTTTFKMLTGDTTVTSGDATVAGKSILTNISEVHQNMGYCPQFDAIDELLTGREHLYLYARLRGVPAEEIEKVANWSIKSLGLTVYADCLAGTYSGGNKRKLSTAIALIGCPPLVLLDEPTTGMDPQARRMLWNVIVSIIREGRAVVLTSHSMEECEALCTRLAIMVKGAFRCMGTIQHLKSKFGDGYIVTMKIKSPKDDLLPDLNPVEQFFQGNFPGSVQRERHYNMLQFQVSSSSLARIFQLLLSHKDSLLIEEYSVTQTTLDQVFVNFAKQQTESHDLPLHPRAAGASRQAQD
Procedure: (§1) FIG. 5. Azido-ATP photoaffinity labeling of the N and C halves of ABCR. A. Membranes from transfected cells expressing either full-length ABCR (lanes 1 & 2) or co-expressing the N and C halves (lanes 3 & 4) were photoaffinity labeled with 1.5 μM 8-azido-[α-^32P]ATP in the absence or presence of 1 mM ATP. The expressed protein was isolated on a Rim3F4-Sepharose matrix prior to analysis by SDS-PAGE and phosphorimage analysis. Left panel: Coomassie blue stained gel. Right panel: Azido-ATP labeling. B. Membranes from transfected cells expressing full-length ABCR, the N-half, the C-half, or both halves (NC halves) were labeled with 8-azido-[α-^32P] and isolated as above. Similar amounts of protein were loaded in each lane of the gel as judged by staining with Coomassie brilliant blue (not shown). C. Rod outer segment membranes were incubated with (+) or without (−) trypsin and subsequently labeled with azido-[α-^32P]ATP. ABCR and the associated N and C complex were purified on a Rim3F4-Sepharose matrix. Left panel: Azido-ATP labeling of the full-length ABCR (220 kDa) and the C-half (114 kDa); N-half was not labeled. Right panel: Western blots labeled for the full-length ABCR and C-half with the Rim3F4 antibody and the N-half with the Rim5B4 antibody. […]

[2] = molecular target: full-length ABCR (Homo sapiens, UniProt P78363); experiment: as above; design: Membranes from transfected cells expressing either full-length ABCR (lanes 1 & 2); expressed in transfected cells; host or cells: transfected cells (COS-1 or EBNA293); settings: 1 mM ATP added prior to photoaffinity labeling; 1.5 μM 8-azido-[α-32P]ATP; FIG. 5A lane 2
Procedure: as §1

[3] = molecular target: T2, ABCR (Homo sapiens, UniProt P78363); experiment: 8-azido-ATP/ADP nucleotide trapping in membranes from transfected cells; settings: 800 μM orthovanadate, 5 μM 8-azido-[α-32P]ATP, 37° C.
T2 construct: Membranes from transfected cells expressing either full-length ABCR (lanes 1 & 2) or co-expressing the N and C halves; expressed in transfected cells; host or cells: transfected cells (COS-1 or EBNA293)
Procedure: FIG. 7. Nucleotide trapping by ABCR and co-expressed N and C halves. A. Effect of orthovanadate on nucleotide trapping. Membranes from transfected cells were incubated with 5 μM 8-azido-[α-^32P]ATP at 37° C., washed, and tightly bound nucleotides were UV crosslinked. Lane 1, full-length ABCR; lane 2, full-length ABCR incubated with 800 μM orthovanadate; lane 3, co-expressed N and C halves; lane 4, co-expressed N- and C-halves incubated with 800 μM orthovanadate. B. Effect of temperature and retinal on nucleotide trapping. Lane 1, full-length ABCR labeled at 0° C.; lane 2, full-length ABCR labeled at 37° C.; lane 3, full-length ABCR labeled at 37° C. in the presence of 50 μM all-trans retinal; lane 4, co-expressed N and C halves labeled at 0° C.; lane 5, co-expressed N and C halves labeled at 37° C.; lane 6, co-expressed N and C halves labeled at 37° C. in the presence of 50 μM all-trans retinal.
8-Azido-ATP Trapping—Membranes were incubated with 5 μM 8-azido-[α-^32P]ATP in 50 μl of labeling buffer with or without 800 μM sodium orthovanadate for 10 min at 37° C. All-trans retinal and 50 μM DTT were added where indicated. Binding was stopped by the addition of ice-cold 20 mM Tris-HCl, pH 7.4, the membranes were collected by centrifugation and washed one more time. Samples exposed to orthovanadate were washed in the presence of 800 μM orthovanadate. […]

Chain of full-length ABCR (P78363 whole entry): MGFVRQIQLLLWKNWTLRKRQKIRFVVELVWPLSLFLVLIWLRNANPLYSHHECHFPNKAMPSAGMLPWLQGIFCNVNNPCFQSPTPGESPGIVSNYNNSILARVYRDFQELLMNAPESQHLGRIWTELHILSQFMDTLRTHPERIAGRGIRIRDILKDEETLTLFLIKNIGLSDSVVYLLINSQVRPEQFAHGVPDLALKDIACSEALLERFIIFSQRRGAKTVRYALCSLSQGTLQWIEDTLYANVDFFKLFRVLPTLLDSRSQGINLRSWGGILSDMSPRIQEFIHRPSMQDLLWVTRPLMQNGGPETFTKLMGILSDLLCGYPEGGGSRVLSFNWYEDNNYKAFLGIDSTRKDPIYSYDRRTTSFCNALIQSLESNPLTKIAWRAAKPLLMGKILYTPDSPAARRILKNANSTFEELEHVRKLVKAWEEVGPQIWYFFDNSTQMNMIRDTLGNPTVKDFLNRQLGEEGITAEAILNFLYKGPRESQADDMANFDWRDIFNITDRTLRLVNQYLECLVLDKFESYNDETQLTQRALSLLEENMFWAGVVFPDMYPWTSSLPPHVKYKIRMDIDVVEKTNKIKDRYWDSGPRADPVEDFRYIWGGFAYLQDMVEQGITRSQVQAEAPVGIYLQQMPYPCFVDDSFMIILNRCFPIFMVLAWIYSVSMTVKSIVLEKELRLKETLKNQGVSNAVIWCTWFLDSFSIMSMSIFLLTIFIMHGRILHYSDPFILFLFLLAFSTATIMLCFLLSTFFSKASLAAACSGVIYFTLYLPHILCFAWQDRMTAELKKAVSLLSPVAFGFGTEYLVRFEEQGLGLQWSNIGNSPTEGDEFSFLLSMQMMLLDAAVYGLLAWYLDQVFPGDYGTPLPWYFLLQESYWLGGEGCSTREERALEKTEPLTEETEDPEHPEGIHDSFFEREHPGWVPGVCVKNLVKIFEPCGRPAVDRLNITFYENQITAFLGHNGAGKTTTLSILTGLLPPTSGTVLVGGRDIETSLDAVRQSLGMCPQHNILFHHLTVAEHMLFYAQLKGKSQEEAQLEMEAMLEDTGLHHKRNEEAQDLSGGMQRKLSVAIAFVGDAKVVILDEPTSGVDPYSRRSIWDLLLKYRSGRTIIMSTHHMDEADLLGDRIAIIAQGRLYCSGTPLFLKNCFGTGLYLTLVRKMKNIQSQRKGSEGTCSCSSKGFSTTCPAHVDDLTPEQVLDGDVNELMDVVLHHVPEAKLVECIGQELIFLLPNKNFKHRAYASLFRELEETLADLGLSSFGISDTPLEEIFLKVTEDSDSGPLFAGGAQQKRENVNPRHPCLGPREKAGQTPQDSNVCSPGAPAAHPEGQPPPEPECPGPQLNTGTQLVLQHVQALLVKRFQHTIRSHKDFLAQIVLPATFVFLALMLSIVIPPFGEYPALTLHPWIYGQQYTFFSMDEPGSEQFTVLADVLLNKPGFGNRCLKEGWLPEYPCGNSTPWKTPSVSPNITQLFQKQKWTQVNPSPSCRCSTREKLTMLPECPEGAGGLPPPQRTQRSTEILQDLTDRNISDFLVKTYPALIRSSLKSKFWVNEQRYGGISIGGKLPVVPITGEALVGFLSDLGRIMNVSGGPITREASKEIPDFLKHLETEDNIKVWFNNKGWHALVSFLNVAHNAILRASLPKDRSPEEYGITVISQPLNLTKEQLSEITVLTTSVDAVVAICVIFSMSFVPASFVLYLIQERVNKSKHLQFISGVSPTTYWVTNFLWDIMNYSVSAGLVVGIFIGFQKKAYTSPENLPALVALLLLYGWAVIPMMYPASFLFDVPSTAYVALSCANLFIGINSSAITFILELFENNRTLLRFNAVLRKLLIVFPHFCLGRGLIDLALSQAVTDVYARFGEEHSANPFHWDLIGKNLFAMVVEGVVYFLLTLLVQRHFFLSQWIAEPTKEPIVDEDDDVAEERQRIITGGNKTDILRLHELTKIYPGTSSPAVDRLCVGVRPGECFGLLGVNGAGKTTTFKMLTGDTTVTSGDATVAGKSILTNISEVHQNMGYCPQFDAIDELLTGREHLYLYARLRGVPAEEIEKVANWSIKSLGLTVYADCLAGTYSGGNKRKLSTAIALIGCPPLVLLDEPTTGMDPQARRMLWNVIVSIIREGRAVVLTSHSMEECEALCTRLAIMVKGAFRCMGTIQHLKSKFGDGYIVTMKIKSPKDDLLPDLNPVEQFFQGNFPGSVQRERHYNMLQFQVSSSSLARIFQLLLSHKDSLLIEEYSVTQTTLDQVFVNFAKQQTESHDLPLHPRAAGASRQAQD
T2 sequence (P78363 whole entry): as above

Row | Structure (SMILES) | effect on 8-azido-ATP labeling [1] | effect on 8-azido-ATP labeling [2] | effect on 8-azido ATP/ADP trapping [3]
1 | Nc1ncnc2c1ncn2[C@@H]1O[C@H](COP(=O)(O)OP(=O)(O)OP(=O)(O)O)[C@@H](O)[C@H]1O [ATP] | essentially abolished | essentially abolished | –
2 | [Na+].[Na+].[Na+].[O]=[V]([O-])([O-])[O-] [sodium orthovanadate] | – | – | not dependent
